According to ChEMBL document CHEMBL3885881, “DrugMatrix”:

Organism: Rattus norvegicus
Assay: DrugMatrix - Regimen: Daily Repeat
Type: toxicity, organism-based, Sprague-Dawley
Parameters: regimen Daily Repeat, gender Male, age 6-8 weeks
Conditions: in vivo, po, route oral GAVAGE, vehicle .5 % CMC; for ABSOLUTE BASOPHIL / ABSOLUTE EOSINOPHIL / ABSOLUTE LYMPHOCYTE / ABSOLUTE MONOCYTE / ABSOLUTE SEGMENTED NEUTROPHIL / BASOPHIL / EOSINOPHIL / ERYTHROCYTE COUNT / HEMATOCRIT / HEMOGLOBIN / LEUKOCYTE COUNT / LYMPHOCYTE / MEAN CORPUSCULAR HEMOGLOBIN / MEAN CORPUSCULAR HEMOGLOBIN CONCENTRATION / MEAN CORPUSCULAR VOLUME / MONOCYTE / NEUTROPHIL / NUCLEATED RED BLOOD CELLS / PLATELET COUNT: tissue Blood; for ALANINE AMINOTRANSFERASE / ALBUMIN / ALKALINE PHOSPHATASE / ASPARTATE AMINOTRANSFERASE / BLOOD UREA NITROGEN / CARBON DIOXIDE / CHLORIDE / CHOLESTEROL / CREATINE PHOSPHOKINASE / CREATININE / GLUCOSE / LACTATE DEHYDROGENASE / LIPASE / PHOSPHORUS / POTASSIUM / SODIUM / TOTAL BILIRUBIN / TOTAL PROTEIN / URIC ACID: tissue Plasma
[1] = 10 mg/kg, 120 h, dose level Low, time 5 day
[2] = 2500 mg/kg, 72 h, dose level High, time 3 day
[3] = 2500 mg/kg, 120 h, dose level High, time 5 day

SMILES: O=C1CN=C(c2ccccc2Cl)c2cc([N+](=O)[O-])ccc2N1 [CLONAZEPAM]
- ABSOLUTE BASOPHIL [1]: 0 CELLS/uL
- ABSOLUTE EOSINOPHIL [1]: 31 CELLS/uL
- ABSOLUTE LYMPHOCYTE [1]: 8153 CELLS/uL
- ABSOLUTE MONOCYTE [1]: 62 CELLS/uL
- ABSOLUTE SEGMENTED NEUTROPHIL [1]: 620.67 CELLS/uL
- BASOPHIL [1]: 0%
- EOSINOPHIL [1]: 0.33%
- ERYTHROCYTE COUNT [1]: 5.74 x10E6/uL
- HEMATOCRIT [1]: 35.3%
- HEMOGLOBIN [1]: 13.87 G/DL
- LEUKOCYTE COUNT [1]: 8.87 x10E3/uL
- LYMPHOCYTE [1]: 91.67%
- MEAN CORPUSCULAR HEMOGLOBIN [1]: 24.13 pg
- MEAN CORPUSCULAR HEMOGLOBIN CONCENTRATION [1]: 39.3 G/DL
- MEAN CORPUSCULAR VOLUME [1]: 61.43 fL
- MONOCYTE [1]: 0.67%
- NEUTROPHIL [1]: 7.33%
- NUCLEATED RED BLOOD CELLS [1]: 0 /100WBC
- PLATELET COUNT [1]: 1168 x10E3/uL
- ALANINE AMINOTRANSFERASE [1]: 54 u/L
- ALBUMIN [1]: 4.33 G/DL
- ALKALINE PHOSPHATASE [1]: 274.67 u/L
- ASPARTATE AMINOTRANSFERASE [1]: 97 u/L
- BLOOD UREA NITROGEN [1]: 18.67 mg/dL
- CARBON DIOXIDE [1]: 25.67 mmol/L
- CHLORIDE [1]: 98.67 MEQ/L
- CHOLESTEROL [1]: 75.33 mg/dL
- CREATINE PHOSPHOKINASE [1]: 826.67 u/L
- CREATININE [1]: 0.19 mg/dL
- GLUCOSE [1]: 177.67 mg/dL
- LACTATE DEHYDROGENASE [1]: 201 u/L
- LIPASE [1]: 10 u/L
- PHOSPHORUS [1]: 11.6 mg/dL
- POTASSIUM [1]: 5.92 MEQ/L
- SODIUM [1]: 138.97 MEQ/L
- TOTAL BILIRUBIN [1]: 0.13 mg/dL
- TOTAL PROTEIN [1]: 6.07 G/DL
- URIC ACID [1]: 1.63 mg/dL
- ABSOLUTE BASOPHIL [2]: 0 CELLS/uL
- ABSOLUTE EOSINOPHIL [2]: 0 CELLS/uL
- ABSOLUTE LYMPHOCYTE [2]: 8925.67 CELLS/uL
- ABSOLUTE MONOCYTE [2]: 256 CELLS/uL
- ABSOLUTE SEGMENTED NEUTROPHIL [2]: 1951.67 CELLS/uL
- BASOPHIL [2]: 0%
- EOSINOPHIL [2]: 0%
- ERYTHROCYTE COUNT [2]: 5.85 x10E6/uL
- HEMATOCRIT [2]: 36.6%
- HEMOGLOBIN [2]: 14.27 G/DL
- LEUKOCYTE COUNT [2]: 11.13 x10E3/uL
- LYMPHOCYTE [2]: 79%
- MEAN CORPUSCULAR HEMOGLOBIN [2]: 24.47 pg
- MEAN CORPUSCULAR HEMOGLOBIN CONCENTRATION [2]: 39.03 G/DL
- MEAN CORPUSCULAR VOLUME [2]: 62.67 fL
- MONOCYTE [2]: 2.33%
- NEUTROPHIL [2]: 18.67%
- NUCLEATED RED BLOOD CELLS [2]: 0.33 /100WBC
- PLATELET COUNT [2]: 1190 x10E3/uL
- ALANINE AMINOTRANSFERASE [2]: 88.33 u/L
- ALBUMIN [2]: 3.97 G/DL
- ALKALINE PHOSPHATASE [2]: 322 u/L
- ASPARTATE AMINOTRANSFERASE [2]: 132 u/L
- BLOOD UREA NITROGEN [2]: 19.33 mg/dL
- CARBON DIOXIDE [2]: 31.33 mmol/L
- CHLORIDE [2]: 100.33 MEQ/L
- CHOLESTEROL [2]: 88.67 mg/dL
- CREATINE PHOSPHOKINASE [2]: 910.33 u/L
- CREATININE [2]: 0.49 mg/dL
- GLUCOSE [2]: 134.33 mg/dL
- LACTATE DEHYDROGENASE [2]: 213.67 u/L
- LIPASE [2]: 11.33 u/L
- PHOSPHORUS [2]: 13.77 mg/dL
- POTASSIUM [2]: 6.47 MEQ/L
- SODIUM [2]: 143.17 MEQ/L
- TOTAL BILIRUBIN [2]: 0.2 mg/dL
- TOTAL PROTEIN [2]: 5.7 G/DL
- URIC ACID [2]: 0.57 mg/dL
- ABSOLUTE BASOPHIL [3]: 0 CELLS/uL
- ABSOLUTE EOSINOPHIL [3]: 0 CELLS/uL
- ABSOLUTE LYMPHOCYTE [3]: 10757.67 CELLS/uL
- ABSOLUTE MONOCYTE [3]: 124 CELLS/uL
- ABSOLUTE SEGMENTED NEUTROPHIL [3]: 1618.33 CELLS/uL
- BASOPHIL [3]: 0%
- EOSINOPHIL [3]: 0%
- ERYTHROCYTE COUNT [3]: 5.66 x10E6/uL
- HEMATOCRIT [3]: 34.97%
- HEMOGLOBIN [3]: 14.27 G/DL
- LEUKOCYTE COUNT [3]: 12.5 x10E3/uL
- LYMPHOCYTE [3]: 85.67%
- MEAN CORPUSCULAR HEMOGLOBIN [3]: 25.23 pg
- MEAN CORPUSCULAR HEMOGLOBIN CONCENTRATION [3]: 40.83 G/DL
- MEAN CORPUSCULAR VOLUME [3]: 61.8 fL
- MONOCYTE [3]: 1%
- NEUTROPHIL [3]: 13.33%
- NUCLEATED RED BLOOD CELLS [3]: 0 /100WBC
- PLATELET COUNT [3]: 964.33 x10E3/uL
- ALANINE AMINOTRANSFERASE [3]: 84 u/L
- ALBUMIN [3]: 3.93 G/DL
- ALKALINE PHOSPHATASE [3]: 331.67 u/L
- ASPARTATE AMINOTRANSFERASE [3]: 114 u/L
- BLOOD UREA NITROGEN [3]: 19 mg/dL
- CARBON DIOXIDE [3]: 27 mmol/L
- CHLORIDE [3]: 102.33 MEQ/L
- CHOLESTEROL [3]: 93 mg/dL
- CREATINE PHOSPHOKINASE [3]: 261 u/L
- CREATININE [3]: 0.2 mg/dL
- GLUCOSE [3]: 136.67 mg/dL
- LACTATE DEHYDROGENASE [3]: 217.67 u/L
- LIPASE [3]: 10.33 u/L
- PHOSPHORUS [3]: 9.8 mg/dL
- POTASSIUM [3]: 5.43 MEQ/L
- SODIUM [3]: 142.37 MEQ/L
- TOTAL BILIRUBIN [3]: 0.2 mg/dL
- TOTAL PROTEIN [3]: 5.73 G/DL
- URIC ACID [3]: 1.13 mg/dL
